Entries after “also recorded” stand apart in the source; their conditions may differ. Values belong to the compound of their own block, whether it stands above or below them.
What was measured:
[1] = target: T1, CD19 (Homo sapiens, UniProt P15391); experiment: T cell engager assay, Jurkat NFAT luciferase reporter cells with CHO-K1 IAA or ABA activator CD19 reporter cells; type: cell-based
T1 construct: expressed in transfected cells
T1 sequence (P15391 20-556): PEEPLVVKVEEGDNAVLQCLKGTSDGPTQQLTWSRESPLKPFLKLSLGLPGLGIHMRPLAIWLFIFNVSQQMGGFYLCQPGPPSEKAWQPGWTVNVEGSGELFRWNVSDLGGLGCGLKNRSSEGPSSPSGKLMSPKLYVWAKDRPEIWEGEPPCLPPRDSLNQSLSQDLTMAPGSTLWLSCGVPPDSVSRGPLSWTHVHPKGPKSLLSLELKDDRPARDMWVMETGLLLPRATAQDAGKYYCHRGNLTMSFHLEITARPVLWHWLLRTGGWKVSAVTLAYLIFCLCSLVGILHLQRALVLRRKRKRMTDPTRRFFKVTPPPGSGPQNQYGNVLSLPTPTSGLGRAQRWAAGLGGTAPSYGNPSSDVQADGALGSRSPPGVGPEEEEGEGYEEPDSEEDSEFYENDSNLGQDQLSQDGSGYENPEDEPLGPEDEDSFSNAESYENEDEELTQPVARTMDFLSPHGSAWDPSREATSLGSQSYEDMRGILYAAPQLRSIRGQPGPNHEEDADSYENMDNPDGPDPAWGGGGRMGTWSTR
Description: This represents a typical assay set up for measuring the effect of a bispecific against cells expressing its target antigen.
NFAT activation was determined by luminescence after 24 hours (48 Hours from assay start) and plotted against CD19 expression quantified by staining with PE anti-CD19 and plotted on a curve generated using Quantibrite PE receptor quantification kit. n=3, graphs report mean±SD.

[2] = test system: CD4+ and CD8+ T cells; experiment: Proliferation and IFNγ production of PBMC T cells stimulated with CD3/CD28 Dynabeads; type: cell-based, human; conditions: PBMCs from two donors, concentration series, 96 hrs; for IFNγ production: ELISA; for proliferation of CD4+ T cells / proliferation of CD8+ T cells: proliferation dye
From the text: One of the main considerations for application of the CIP system in immunology assays using primary human immune cells, is the effect that the small molecules (e,g. IAA) may have on cell viability and normal function. For example, one of the main limitations of one of the rapamycin-CIP systems is the high immunoregulatory effect of rapamycin on immune cells that limits its applicability in immunology assays. The inventors assessed the effect of IAA in the function of immune cells. PBMCs from two donors were stimulated with Human T-Activator CD3/CD28 targeting Dynabeads to stimulate T cell activation and proliferation, in the presence of a increasing concentration series of IAA. T cell proliferation and IFNγ production was analysed 96 hrs post stimulation to determine any negative effects on T cells. The concentration series of IAA was selected to reflect the concentration expected to be used in assays. […] Proliferation of CD4+ (A) and CD8+ (B) T cells was assessed by flow cytometry using a proliferation dye. The results are shown in FIG. 3, IFNγ production was assessed by ELISA (panel C), n=3, graphs report […]+SD.
For example one of the main limitation of one of the rapamycin-CIP system is the high immunoregulatory effect of rapamycin on immune cells that limits its applicability in immunology assays.
Peripheral Blood Mononuclear Cells (PBMCs) from two donors were labelled with eBioscience™ Cell Proliferation Dye eFluor™ 670 (ThermoFisher #65-0840-90). […] The cells were incubated for 96 hrs in a humidified incubator at 37° C./6% CO2 at which point proliferation of CD4+ and CD8+ T cells was assessed by flow cytometry. In parallel, supernatants were collected and the levels of IFNγ was analysed by ELISA (Human IFN-gamma DuoSet ELISA, R&D systems #DY285B).

[3] = test system: IAA CIP system; experiment: CD19 expression in CHO-K1 IAA activator 10× i-Scel CD19 reporter cells; type: cell-based
From the text: To test the system in a therapeutically relevant target, a construct expressing CD19 under the control of 10× i-Scel binding sites was introduced into the IAA activator cassette containing CHO-K1 cells and clones isolated. As the purpose of the system is to provide titratable expression of a given receptor (usually a tumour associated antigen) within a biologically relevant range, the CD19 expression was quantified using a Quantibrite bead fluorescence quantification kit which contains multiple bead populations each conjugated with set numbers of fluorophore molecules (PE in this case) per bead. Assuming the fluorophore conjugation to the detection antibody is at a 1:1 ratio (which was confirmed by the manufacture) and antibody binding to the receptor of interest (CD19) occurs at a 1:1 ratio, the number of CD19 receptors per cell can be calculated. By means of comparison, the CD19 expression level of the CD19 positive cells found in peripheral blood mononuclear cells (PBMCs), e.g. B cells, and Ramos cells were calculated in the same experiment.
(§1) Following this incubation, the cells were analysed for CD19 expression by flow cytometry.
CHO-K1 cells containing the IAA activator cassette and a 10× i-Scel CD19 reporter construct were seeded overnight in 96 well plates. […] CD19 expression was assess by flow cytometry and quantified for receptor number per cell. […]

[4] = test system: ABA CIP system; experiment: tagBFP and CD19 reporter expression in HEK293 ABA activator cells; type: cell-based; conditions: 1000 μM ABA, 24 hours
[5] = test system: ABA CIP system; experiment: tagBFP and CD19 reporter expression in CHO-K1 ABA activator cells; type: cell-based
Description: CD19 expression was detected by flow cytometry analysis and the number of CD19 receptors per cell was quantified using a Quantibrite PE bead fluorescence quantification kit (BD Biosciences). The CD19 receptors per cell for Ramos, Raji and B cells isolated from PBMCs are shown by way of comparison.
as §1
CD19 expression was detected by anti-CD19 staining (Biolegend #302254) and flow cytometry analysis. The number of CD19 receptors per cell was quantified using a Quantibrite PE bead fluorescence quantification kit (BD Biosciences #340495).

[6] = test system: IAA CIP system; experiment: IAA-inducible CD19 expression in CHO-K1 cells containing both IAA and ABA CIP systems; type: cell-based; conditions: CHO-K1 IAA CD19 / ABA CD22 cells, ABA concentration series
Description: (§2) CD22 and CD19 expression was measured by flow cytometry and mean fluorescence intensity corresponding to CD22 and CD19 expression was plotted.

[7] = test system: HEK293 cells; experiment: Cytotoxicity on HEK293 cells, eFluor780 fixable viability dye, flow cytometry; type: cell-based; conditions: increasing concentrations, 24 hours
Description: (§3) Before IAA was used as an expression inducer for the transduced cell lines, it was assessed for any cytotoxic effects on CHO-K1 and HEK293 cells. Cell viability in both HEK293 and CHO-K1 cells was measured by flow cytometry 24 hours post addition of IAA over the concentration range indicated.
(§4) HEK293 and CHO-K1 cells were treated with the indicated concentrations of IAA for 24 hours before being stained with eFluor780 fixable viability dye and analysed by flow cytometry.

[8] = test system: CHO-K1 cells; experiment: Cytotoxicity on CHO-K1 cells, eFluor780 fixable viability dye, flow cytometry; type: cell-based; conditions: increasing concentrations, 24 hours
Description: as §3, §4

[9] = test system: IAA CIP system; experiment: EGFP reporter expression in HEK293 cells with IAA activator cassette and i-Scel EGFP reporter; type: cell-based; conditions: 24 hours
From the text: (§5) The levels of expression correlate with the number of i-Scel sites, with negligible induction observed at 1× i-Scel and the highest induction over background observed with the 10× i-Scel sites reporter. […] However, the inventors predict, that the inclusion of higher numbers of i-Scel binding sites in the reporter/TAOI cassette, would result in higher levels of induction of the reporter/TAOI.
(§6) Therefore, the 5× and 10× i-Scel binding site pools for HEK293 and CHO-K1 cells were single cell dilution cloned, and colonies picked from each cell pool and then analysed for induction of expression following IAA treatment. […] The HEK293 and CHO-K1 cells containing the IAA activator cassette and the 10× and 5× i-Scel reporter constructs were seeded overnight in 96 well plates. IAA was added at the indicated concentration and the cells were incubated for a further 24 hours. EGFP expression was detected by flow cytometry analysis.
(§7) The HEK293 and CHO-K1 cells containing the IAA activator cassette and the 10× i-Scel reporter construct were seeded overnight in 96 well plates. IAA was added at the indicated concentrations and the cells were incubated for a further 24 hours. EGFP expression was detected by flow cytometry analysis.
(§8) HEK293 and CHO-K1 cells containing the IAA activator cassette and the EGFP reporter constructs were seeded in 6 well plates. Following overnight incubation, the media was replaced with fresh media containing the indicated concentrations of IAA and the cells incubated for a further 24 hours. EGFP expression was detected using a NovoCyte flow cytometer (ACEA).

[10] = test system: IAA CIP system; experiment: EGFP reporter expression in CHO-K1 cells with IAA activator cassette and i-Scel EGFP reporter; type: cell-based; conditions: 24 hours
From the text: as §5, §6, §7, §8

[11] = test system: ABA CIP system; experiment: ABA-inducible CD22 expression in CHO-K1 cells containing both IAA and ABA CIP systems; type: cell-based; conditions: CHO-K1 IAA CD19 / ABA CD22 cells, IAA concentration series
Description: as §2

[12] = CHO-K1 ABA activator cells, 1000 μM ABA, 24 hours

- NFAT luciferase signal against number of CD19 receptors ([1]; Blincyto 10 ng/mL and 25 ng/mL, luminescence after 24 hours): concurrent increase in luciferase signal
Compound: Blincyto: CD19×CD3 targeting bispecific T cell engager
- NFAT luciferase signal at the higher concentration compared to the lower ([1]; Blincyto 25 ng/mL versus 10 ng/mL): higher but remains IAA and ABA dose dependent

Compound: S-(+)-abscisic acid [ABA]
- IFNγ production [2]: minimal effects
- proliferation of CD4+ T cells [2]: minimal effects
- proliferation of CD8+ T cells [2]: minimal effects
- CD19 expression from the IAA system (cross-talk) ([3]; CHO-K1 IAA activator CD19 reporter cells, 1000 μM ABA, 24 hours): does not induce expression
- CD19 expression [4]: expression of both tagBFP and CD19 was obtained
- tagBFP expression [4]: expression of both tagBFP and CD19 was obtained
- dose dependence of CD19 expression (receptors per cell) ([5]; CHO-K1 ABA activator 9×Gal4 UAS CD19 clone, ABA concentration range, 48 hours): dose dependent induction of CD19 expression
- CD19 expression [5, 12]: expression of both tagBFP and CD19 was obtained
- tagBFP expression [5, 12]: expression of both tagBFP and CD19 was obtained
- CD19 expression from the IAA CIP system upon ABA (cross-talk in a single cell line) [6]: does not induce expression; also recorded: without ABA inducing IAA-activated CD 19 expression

Compound: O=C(O)Cc1c[nH]c2ccccc12 [IAA, indole-3-acetic acid]
- cell viability (percentage of cells which do not take up the dye) [7]: no decrease in cell viability was observed
- cell viability (percentage of cells which do not take up the dye) [8]: no decrease in cell viability was observed
- IFNγ production [2]: little or no effect
- proliferation of CD4+ T cells [2]: little or no effect
- proliferation of CD8+ T cells [2]: little or no effect
- dose dependence of EGFP expression ([9]; HEK293 10× i-Scel EGFP clone): dose-dependent induction of EGFP expression
- induction of EGFP expression ([9]; HEK293 stable pools, 1×, 5×, 10× i-Scel sites): induction of expression of EGFP can clearly be seen
- additional induction of EGFP at 1000 μM compared to 500 μM ([9]; HEK293 stable pools): no evidence of additional induction
- dose dependence of EGFP expression ([10]; CHO-K1 10× i-Scel EGFP clone): dose-dependent induction of EGFP expression
- induction of EGFP expression ([10]; CHO-K1 stable pools, 1×, 5×, 10× i-Scel sites): induction of expression of EGFP can clearly be seen
- additional induction of EGFP at 1000 μM compared to 500 μM ([10]; CHO-K1 stable pools): no evidence of additional induction
- dose dependence of CD19 expression (receptors per cell) ([3]; CHO-K1 IAA activator 10× i-Scel CD19 clone, IAA concentration range, 72 hours): a dose dependent range of CD19 expression has been achieved
- CD19 expression from the ABA CIP system (cross-talk) ([5]; CHO-K1 ABA activator CD19 reporter cells, 1000 μM IAA, 24 hours): does not induce expression
- CD22 expression from the ABA system upon IAA (cross-talk in a single cell line) [11]: does not induce expression; also recorded: without IAA inducing ABA-activated CD22 expression

— US20250290916A1 (Antibody Analytics Limited, priority 2022, published 2025)
